Laboratory results published in patent publication US5854010A, “Bioassay for detecting 2,3,7,8-tetrachlorodibenzo-para-dioxin and TCDD-like compounds and novel recombinant cell line useful therefor” (priority 1997, dated 1998).

Assays:
[1] = test system: mouse H1L1.1 cells; assay: Luciferase induction by TCDD in DMSO or serum, 96-well, 4 h; detection limits (FIG. 8); type: cell-based
Experimental: Specifically, since it is desired to utilize the present bioassay system directly to detect PAHs in samples without the need for solvent extraction and concentration, the dose-dependence of luciferase induction in cells incubated with increasing concentrations of TCDD in serum versus that observed with increasing concentrations of TCDD in DMSO was examined. In other words, the present bioassay system should be advantageously employed directly with a sample of serum from an animal or human, where the sample may contain TCDD or other PAHs and the serum is the solvent, whereby solvent extraction of the sample with DMSO as the solvent is unnecessary.
The cells were incubated with the respective increasing concentrations of TCDD for 4 hours and luciferase activity of cell lysates determined as follows. […]
After incubation for an additional 15 minutes, luciferase activity in the lysed cells was determined. Luciferase activity was sensitively measured using its bioluminescent substrate, luciferin in a Dynatech ML3000 microplate luminometer. In these experiments, cells either kept intact or lysed using luciferase lysis buffer (purchased from Promega) and luciferase activity in an aliquot of the lysate was determined by automatic injection of assay reagent and measurement of the resulting bioluminescence.

[2] = test system: mouse hepatoma Hepa1c1c7 cells (wild type); assay: TCDD-inducible luciferase activity, transient transfection with pGudLuc1.0 (lacks DREs); type: cell-based
Experimental: In general, the expression vectors pGudLuc1.0 and pGudLuc1.1 were prepared as follows. A 1330-bp HindIII fragment or an 1810-bp HindIII fragment isolated from the plasmid, pMpap1.0 or pMpap1.1, respectively (see, El-Fouly et al., supra), was subcloned into the HindIII site immediately upstream of the luciferase gene in the plasmid pGL2-basic (purchased from Promega).
More specifically, the following cells were obtained from the source indicated. Wild-type and AhR-defective (BPRc1 and TAO, respectively) mouse hepatoma (Hepa1c1c7) cells (Hepa1), derived from a C57B1 mouse liver tumor, were obtained from J. P. Whitlock, Jr. (Stanford University). These cells were grown as previously described by Miller et al. in "Biochemical and Genetic Analysis of Variant Mouse Hepatoma Cells Defective in the Induction of Benzo(a)pyrene Metabolizing Enzyme Activity", J. Biol. Chem., Vol. 258, pp. 3523-3527 (1983). […]
(§1) Using the stabilized luciferase assay system (purchased from Promega), luciferase activity in an aliquot of the cleared lysed cell supernatant (20 μl) was determined by mixing it with 100 µl of luciferase assay reagent (purchased from Promega) and measuring the resulting luminescence in a Turner Luminometer or Dynatech ML3000 microplate luminometer (light output was integrated over 1 minute after a delay time of 30 seconds).
(§2) Using a microplate adaptation of the method reported by Bradford in "A Rapid Sensitive Method for the Quantitation of Microgram Quantities of Protein Utilizing the Principle of Protein-Dye Binding", Anal. Biochem., […], pp. 248-254 (1976), luciferase activity was standardized to the protein concentration of the supernatant (with bovine serum albumin as the protein standard). Because of instrument differences in luminescence measurement and data output, luciferase activity was determined as relative light units (RLU) per microgram of protein, which was converted to milligram of protein as reported in the Tables below.

[3] = test system: H4L1.1c4 cells; assay: TCDD-inducible luciferase activity, stably transfected clonal cell line; type: cell-based, rat; settings: 24 h
Experimental: as §1
as §2, with “below. […]” for “below.”
More particularly, isolated clones were grown until confluent, and then incubated in the absence or presence of TCDD (1 nM solubilized in DMSO) for 24 hours. After the incubation, luciferase activity was determined as described above.

With `Clc1cc2c(cc1Cl)Oc1cc(Cl)c(Cl)cc1O2` [TCDD, 2,3,7,8-tetrachlorodibenzo-para-dioxin] the “Relative potency (ED50) for luciferase induction, TCDD-serum versus TCDD-DMSO” value [1] was “significantly lower for the TCDD-serum sample than for the TCDD-DMSO sample”, the “Induction of luciferase by TCDD-containing serum” value ([1]; TCDD in serum) was “dose-dependent manner” and the “Luciferase activity, TCDD in DMSO” value ([2]; Luc1.0, TCDD 1 nM, 24 h, mean of triplicate transfections) was 0.1 RLU/mg protein. For the same compound, the fold induction at 0.001 µM ([2]; Mus musculus, Hepa-1c1c7, Luc1.0, TCDD 1 nM vs DMSO) was 1, the “Induction of luciferase activity” value ([2]; pGudLuc1.0, TCDD 1 nM) was “failed to induce luciferase activity” and the fold induction ([3]; Rattus norvegicus, TCDD 1 nM vs DMSO) was 25. For the same compound, the “Luciferase activity, TCDD in DMSO” value ([3]; TCDD 1 nM, mean ± SD of triplicate assays) was 0.49 ± 0.03 RLU/mg protein.
